Source: patent publication US20090088466A1, “OPIOID RECEPTOR LIGANDS” (priority 2005, published 2009)

Experiments:
HA-μOR = target: T1, HA-μOR (Mus musculus, UniProt P42866); assay: Agonist-induced βarr2-GFP translocation to μOR in HEK-293 cells; assay type: cell-based
T1 construct: expressed in transfected cells; host or cells: HEK-293 (transient)

mouse μOR-YFP = target: T2, mouse μOR-YFP (Mus musculus, UniProt P42866); assay: Agonist-induced internalization of μOR-YFP in HEK-293 cells; assay type: cell-based
T2 construct: expressed in transfected cells; host or cells: HEK-293 (transient; GRK2 co-transfected in panel C)

HA-N-terminus tagged μOR = target: T3, HA-N-terminus tagged μOR (Mus musculus, UniProt P42866); assay: Immunofluorescence of cell surface receptors; assay type: cell-based; settings: intact nonpermeabilized HEK-293 cells; drug treatment over 2 hours
T3 construct: expressed in transfected cells

[1] = test system: formalin-induced nociceptive responses; settings: similar testing conditions (literature); cited from earlier work
[2] = test system: formalin-induced nociceptive responses; assay: Formalin rat paw withdrawal test; assay type: in vivo
Text: Animals: Male Sprague-Dawley rats (Harlan, Indianapolis, Ind.) weighing 250-275 g were used. Rats were housed one to two per cage with free access to food and water, and maintained on a 12-h light/dark cycle in the Association for the Assessment and Accreditation of Laboratory Animal Care-approved animal care facility. The Institutional Animal Care and Use Committee of The University of Iowa approved all experimental procedures.
Formalin Rat Paw Withdrawal Test: Rats were placed in clear plexiglass testing chambers (30.5×30.5×30.5 cm) and allowed to acclimate for 20 minutes. A mirror was placed at a 45° angle below the floor to allow for an unobstructed view of the rats paws. No restraint was placed on the rats and a HEPA filter was continuously run in order to mask external noise. Following the 20-min acclimation period, animals received a 100 μL injection of either Compound Vb (˜0.04 mg/kg) or vehicle subcutaneously in the paw and were placed back into the testing chamber for 5 minutes (Joshi et al., 2000; Joshi and Gebhart, 2003). Animals were then injected with 100 μL of a 1.25% formalin solution into the plantar surface according to the methods previously described (Dubuisson, D. & Dennis, S. G., […], Pain 4, 161-74; Wheeler-Aceto, H. & Cowan, A., 1991, Psychopharmacology (Berl) 104, 35-44; and Kaneko, M. & Hammond, D. L., 1997, J Pharmacol Exp Ther 282, 928-38). Behavior was observed and tracked for 1 hour and the number of flinches was recorded using a Windows XP-based (Microsoft, Seattle, Wash.) program. Each drug treatment group consisted of 6 rats and no rat was tested more than once. For the antagonist studies, rats were pretreated with either nor-binaltorphimine (nor-BNI) (5 mg/kg, 24 hours prior to agonist) or naloxone (5 mg/kg s.c. 30 min prior to agonist) subcutaneously behind the neck.
Chronic study: Chronic animals were given vehicle or Compound Vb alternating dorsal and plantar surface to avoid sensitization caused from injections at the same site over a 5 day period. Following administration of drug on the fifth day, rats were then administered formalin and observed as described above.

[3] = target: T4, HA-tagged mu opioid receptor (Mus musculus, UniProt P42866); assay: Immunoprecipitation / μOR phosphorylation at serine 375; assay type: cell-based; settings: HEK-293 cells stably expressing HA-tagged μOR; 10 μM, 10 min
T4 construct: expressed in transfected cells

[4] = target: T5, hemagglutinin (HA-N-terminus) tagged mouse μOR (Mus musculus, UniProt P42866); assay: Phospho-ERK1/2 immunoblot assay; assay type: cell-based
T5 construct: expressed in transfected cells

κOR = κOR (Homo sapiens, UniProt P41145); settings: cited from earlier work
Chain of κOR (P41145 whole entry): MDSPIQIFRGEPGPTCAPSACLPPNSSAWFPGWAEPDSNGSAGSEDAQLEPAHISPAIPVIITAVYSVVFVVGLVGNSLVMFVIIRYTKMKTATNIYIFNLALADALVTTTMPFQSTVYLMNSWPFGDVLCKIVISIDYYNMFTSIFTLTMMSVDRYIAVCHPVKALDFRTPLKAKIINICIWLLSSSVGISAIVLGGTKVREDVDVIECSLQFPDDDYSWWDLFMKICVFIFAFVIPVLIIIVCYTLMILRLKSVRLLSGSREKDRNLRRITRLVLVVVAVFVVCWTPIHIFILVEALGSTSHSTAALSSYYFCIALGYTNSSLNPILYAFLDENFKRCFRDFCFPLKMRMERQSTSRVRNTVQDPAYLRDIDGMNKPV

δOR = δOR (Homo sapiens, UniProt P41143); settings: CHO cells stably expressing each receptor type; cited from earlier work
Chain of δOR (P41143 whole entry): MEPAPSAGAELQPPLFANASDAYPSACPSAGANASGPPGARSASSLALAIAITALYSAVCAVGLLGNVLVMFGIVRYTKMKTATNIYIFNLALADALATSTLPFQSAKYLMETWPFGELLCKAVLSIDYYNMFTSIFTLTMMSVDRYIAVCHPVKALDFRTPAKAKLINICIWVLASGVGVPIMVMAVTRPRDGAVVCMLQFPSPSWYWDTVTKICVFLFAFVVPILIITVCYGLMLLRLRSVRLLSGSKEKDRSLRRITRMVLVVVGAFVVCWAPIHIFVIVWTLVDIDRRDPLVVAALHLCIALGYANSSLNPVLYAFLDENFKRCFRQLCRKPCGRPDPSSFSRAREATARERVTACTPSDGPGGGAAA

μOR = μOR (Homo sapiens, UniProt P35372); settings: CHO cells stably expressing each receptor type; cited from earlier work
Chain of μOR (P35372 whole entry, canonical isoform): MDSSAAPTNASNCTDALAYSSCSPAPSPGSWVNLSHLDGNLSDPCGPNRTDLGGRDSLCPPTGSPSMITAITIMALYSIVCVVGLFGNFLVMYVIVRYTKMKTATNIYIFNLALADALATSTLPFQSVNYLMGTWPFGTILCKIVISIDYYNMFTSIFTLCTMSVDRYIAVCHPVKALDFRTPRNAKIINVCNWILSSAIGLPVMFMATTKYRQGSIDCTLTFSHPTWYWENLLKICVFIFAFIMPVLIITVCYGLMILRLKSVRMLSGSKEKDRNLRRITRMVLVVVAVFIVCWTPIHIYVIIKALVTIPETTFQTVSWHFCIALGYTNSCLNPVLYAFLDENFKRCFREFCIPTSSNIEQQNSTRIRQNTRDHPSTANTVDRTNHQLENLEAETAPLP

[5] = target: T6, μOR1-D splice variant of the mouse μOR (Mus musculus, UniProt P42866); assay: Agonist-induced μOR1-D-GFP internalization; assay type: cell-based; settings: HEK-293 transiently transfected with μOR1-D-GFP
T6 construct: expressed in transfected cells; host or cells: HEK-293 (transient)

[6] = HEK-293 transiently transfected with mouse μOR-YFP

With C[C@@H](NC(=O)[C@@H](N)Cc1ccc(O)cc1)C(=O)NCC(=O)N(C)[C@@H](Cc1ccccc1)C(=O)NCCO [DAMGO, [D-Ala^2, N-MePhe^4, Gly^5-ol]Enkephalin, reference compound] the βarr2-GFP translocation (HA-μOR; HEK-293, 1 μM) was “leads to βarr2-GFP translocation within 5 min”, the μOR-YFP internalization (mouse μOR-YFP; [6]) was “Internalization can be seen” and the “loss of cell surface receptors” value (HA-N-terminus tagged μOR) was 40%.
Molecule COC(=O)[C@@H]1C[C@H](OC(=O)c2ccsc2)C(=O)[C@H]2[C@@]1(C)CC[C@H]1C(=O)O[C@H](c3ccoc3)C[C@]21C has a melting point of 211 to 212 °C.
With COC(=O)[C@@H]1C[C@H](OS(=O)(=O)c2ccc(C)cc2)C(=O)[C@@H]2[C@@]3(C)C[C@@H](c4ccoc4)OC(=O)[C@H]3CC[C@]21C the melting point was 163 to 165 °C (dec.).
COC(=O)[C@@H]1C[C@H](OC(=O)Nc2ccc([N+](=O)[O-])cc2)C(=O)[C@H]2[C@@]1(C)CC[C@H]1C(=O)O[C@H](c3ccoc3)C[C@]21C showed a melting point of 251 to 253 °C.
COC(=O)[C@@H]1C[C@H](OC(=O)c2cccs2)C(=O)[C@H]2[C@@]1(C)CC[C@H]1C(=O)O[C@H](c3ccoc3)C[C@]21C showed a melting point of 143 to 145 °C.
Molecule COC(=O)[C@@H]1C[C@H](OC(=O)c2cc3ccccc3o2)C(=O)[C@H]2[C@@]1(C)CC[C@H]1C(=O)O[C@H](c3ccoc3)C[C@]21C has a melting point of 226 to 227 °C.
COC(=O)[C@@H]1C[C@H](OC(=O)Cc2ccccc2)C(=O)[C@@H]2[C@@]3(C)C[C@@H](c4ccoc4)OC(=O)[C@H]3CC[C@]21C showed a melting point of 111 to 114 °C.
With COC(=O)[C@@H]1C[C@H](OS(=O)(=O)c2ccc(OC)cc2)C(=O)[C@@H]2[C@@]3(C)C[C@@H](c4ccoc4)OC(=O)[C@H]3CC[C@]21C the melting point was 148 to 149 °C (dec.).
COC(=O)[C@@H]1C[C@H](OC(=O)c2ccccc2Br)C(=O)[C@@H]2[C@@]3(C)C[C@@H](c4ccoc4)OC(=O)[C@H]3CC[C@]21C gave a melting point of 189 to 191 °C.
With COC(=O)[C@@H]1C[C@H](OS(=O)(=O)c2ccccc2)C(=O)[C@@H]2[C@@]3(C)C[C@@H](c4ccoc4)OC(=O)[C@H]3CC[C@]21C the melting point was 157 to 159 °C (dec.).
With COC(=O)[C@@H]1C[C@H](OC(=O)c2cccc(Br)c2)C(=O)[C@@H]2[C@@]3(C)C[C@@H](c4ccoc4)OC(=O)[C@H]3CC[C@]21C the melting point was 195 to 199 °C.
For CN1CC[C@]23c4c5ccc(O)c4O[C@H]2[C@@H](O)C=C[C@H]3[C@H]1C5 [morphine], the development of tolerance [1] is given as “produces tolerance”.
For COC(=O)[C@@H]1C[C@H](OC(=O)c2ccccc2)C(=O)[C@H]2[C@@]1(C)CC[C@H]1C(=O)OC(c3ccoc3)C[C@]21C (stereo partly shown) [Compound Vb], the “total number of flinches in second phase of formalin test” value ([2]; acute (Day 1) and chronic (Day 5) vs vehicle) was “significantly inhibits formalin-induced flinching compared to vehicle in both treatment paradigms”, the “antinociception Day 5 vs Day 1” value ([2]; chronic treatment 5 days) was “significantly more Compound Vb-induced antinociception than seen on Day 1” and the “antinociception after naloxone pretreatment” value ([2]; naloxone 5 mg/kg s.c. 30 min prior) was “reversible by naloxone pretreatment”. The “antinociception after nor-BNI pretreatment” value ([2]; nor-BNI 5 mg/kg s.c. 24 hours prior) was “did not block Compound Vb's efficacy but rather significantly enhanced it”, the “development of antinociceptive tolerance” value ([2]; repeated administration, 5 days) was “did not lead to the development of antinociceptive tolerance” and the “antinociception in formalin paw-withdrawal test” value ([2]; ˜0.04 mg/kg s.c. paw, 5 min prior to 1.25% formalin, acute) was “produced significant antinociception in the second phase”. For the same molecule, the βarr2-GFP translocation (HA-μOR; HEK-293, 2 μM, 10 min) was “does not induce βarr2-GFP translocation”, the βarr2-GFP translocation (HA-μOR; HEK-293 overexpressing GRK2, 2 μM, 10 min) was “does not promote βarr2-GFP translocation” and the βarr2-GFP translocation (HA-μOR; HEK-293 overexpressing GRK2, 100 μM, 30 min) was “does not promote βarr2-GFP translocation”. For the same molecule, the “μOR phosphorylation at serine 375” value [3] was “does not promote robust phosphorylation”, the ERK1/2 phosphorylation ([4]; HEK-293 cells stably expressing HA-tagged mouse μOR, 10 min stimulation) was “dose dependently activates the Map Kinases, ERK1/2, in a μOR antagonist reversible manner” and the “Compound Vb-induced ERK activation after naloxone pretreatment” value ([4]; naloxone 10 μM during the 30 min serum starvation) was “blocked”. The “affinity at κOR” value (κOR) was “retains some affinity”, the μOR-YFP internalization (mouse μOR-YFP; HEK-293 overexpressing GRK2 (5 μg cDNA)) was “does not” and the μOR-YFP internalization (mouse μOR-YFP; [6]) was “do not induce receptor internalization”. The “affinity for δOR” value (δOR) was “no affinity”, the “affinity for μOR relative to κOR” value (μOR) was “greater affinity for μOR over κOR” and the μOR1-D internalization [5] was “fails to internalize this receptor variant”. For the same molecule, the “loss of cell surface receptors” value (HA-N-terminus tagged μOR) was “maintain the same level of cell surface receptor expression”.
COC(=O)[C@@H]1C[C@@H](C(=O)CCc2ccccc2)C(=O)[C@@H]2[C@@]3(C)C[C@@H](c4ccoc4)OC(=O)[C@H]3CC[C@]21C showed a melting point of 155 to 158 °C.
